Literature values, collected in US20250093362A1, “HIGH-THROUGHPUT ENGINEERING OF MOLECULAR GLUES” (Frontier Medicines Corporation, priority 2021, published 2025).

Biological target: CDK12-cyclin K and CUL4 adaptor protein DDB1 (Homo sapiens, UniProt Q16531+Q9NYV4)
Details: analog of CR8 lacking a single methylene group; Nat. 2020, 585 (7824), 293

Chain of CDK12-cyclin K and CUL4 adaptor protein DDB1 (Q9NYV4 713-1052 limits assumed): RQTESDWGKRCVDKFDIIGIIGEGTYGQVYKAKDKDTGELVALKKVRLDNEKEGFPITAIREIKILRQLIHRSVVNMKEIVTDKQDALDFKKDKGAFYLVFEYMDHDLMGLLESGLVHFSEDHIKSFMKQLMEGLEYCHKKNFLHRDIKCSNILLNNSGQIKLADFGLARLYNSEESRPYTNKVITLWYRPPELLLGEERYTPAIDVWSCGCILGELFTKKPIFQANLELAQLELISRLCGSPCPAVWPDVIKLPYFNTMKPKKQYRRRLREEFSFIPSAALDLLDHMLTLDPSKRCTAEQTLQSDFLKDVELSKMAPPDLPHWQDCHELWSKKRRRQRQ
Chain of CDK12-cyclin K and CUL4 adaptor protein DDB1 (O75909 1-267 partner limits assumed): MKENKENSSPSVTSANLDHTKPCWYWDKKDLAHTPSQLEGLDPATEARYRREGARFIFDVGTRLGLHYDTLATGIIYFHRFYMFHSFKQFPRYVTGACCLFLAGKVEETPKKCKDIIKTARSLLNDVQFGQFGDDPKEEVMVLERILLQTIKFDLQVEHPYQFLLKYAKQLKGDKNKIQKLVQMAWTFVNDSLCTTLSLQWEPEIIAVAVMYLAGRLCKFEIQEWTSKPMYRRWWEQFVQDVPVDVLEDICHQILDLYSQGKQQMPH
Chain of CDK12-cyclin K and CUL4 adaptor protein DDB1 (Q16531 whole entry): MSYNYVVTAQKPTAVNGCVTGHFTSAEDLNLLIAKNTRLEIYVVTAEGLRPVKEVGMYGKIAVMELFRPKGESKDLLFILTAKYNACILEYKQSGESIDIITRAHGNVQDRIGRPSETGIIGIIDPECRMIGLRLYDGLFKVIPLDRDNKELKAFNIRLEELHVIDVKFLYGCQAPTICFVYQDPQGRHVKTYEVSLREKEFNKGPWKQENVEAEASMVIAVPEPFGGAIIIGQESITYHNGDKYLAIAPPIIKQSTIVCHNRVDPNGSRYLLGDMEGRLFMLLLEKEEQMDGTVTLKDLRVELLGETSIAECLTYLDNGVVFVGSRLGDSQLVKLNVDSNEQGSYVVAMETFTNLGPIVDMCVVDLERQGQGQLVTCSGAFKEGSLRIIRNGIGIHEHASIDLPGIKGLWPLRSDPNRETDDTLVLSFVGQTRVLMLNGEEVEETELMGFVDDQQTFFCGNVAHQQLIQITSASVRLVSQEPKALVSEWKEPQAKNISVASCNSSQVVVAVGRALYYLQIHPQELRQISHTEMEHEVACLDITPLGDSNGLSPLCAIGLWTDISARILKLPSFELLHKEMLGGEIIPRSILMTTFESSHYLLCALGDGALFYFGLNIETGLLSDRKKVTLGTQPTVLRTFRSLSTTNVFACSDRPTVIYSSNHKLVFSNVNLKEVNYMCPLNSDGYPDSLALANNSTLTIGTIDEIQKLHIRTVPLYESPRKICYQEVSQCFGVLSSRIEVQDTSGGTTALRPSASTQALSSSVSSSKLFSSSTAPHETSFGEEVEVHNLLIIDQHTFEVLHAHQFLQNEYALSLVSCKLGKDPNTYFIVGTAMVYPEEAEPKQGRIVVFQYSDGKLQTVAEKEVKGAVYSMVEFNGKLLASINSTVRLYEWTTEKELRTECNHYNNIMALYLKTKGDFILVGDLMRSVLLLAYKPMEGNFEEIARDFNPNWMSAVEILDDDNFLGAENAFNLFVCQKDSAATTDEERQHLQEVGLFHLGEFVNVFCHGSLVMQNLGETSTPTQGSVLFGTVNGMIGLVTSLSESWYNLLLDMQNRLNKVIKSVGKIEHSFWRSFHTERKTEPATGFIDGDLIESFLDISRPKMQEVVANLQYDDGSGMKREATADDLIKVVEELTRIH

CC[C@H](CO)Nc1nc(Nc2ccc(-c3ccccn3)cc2)c2ncn(C(C)C)c2n1 [DRF053]
driving formation of the ternary complex of CDK12-cyclin K and DDB1: ineffectual
